Measurements: patent publication US20200345725A1, “Methods and Compositions for Treating Cancer” (Omeros Corporation, priority 2019, published 2020)

Columns and labels:
Assay type in all cases: cell-based
GPR174 [1] = biological target: T1, GPR174 (Mus musculus, UniProt Q3U507); test: IL-2 production from purified GPR174 WT and GPR174-KO mouse T cells with PS liposomes (FIG. 67); conditions: GPR174 WT mouse T cells, in presence of PS liposomes, FIG. 67
T1 construct: endogenous in cells; host or cells: purified mouse T cells from WT (and GPR174-KO) mice
T1 sequence (Q3U507 whole entry): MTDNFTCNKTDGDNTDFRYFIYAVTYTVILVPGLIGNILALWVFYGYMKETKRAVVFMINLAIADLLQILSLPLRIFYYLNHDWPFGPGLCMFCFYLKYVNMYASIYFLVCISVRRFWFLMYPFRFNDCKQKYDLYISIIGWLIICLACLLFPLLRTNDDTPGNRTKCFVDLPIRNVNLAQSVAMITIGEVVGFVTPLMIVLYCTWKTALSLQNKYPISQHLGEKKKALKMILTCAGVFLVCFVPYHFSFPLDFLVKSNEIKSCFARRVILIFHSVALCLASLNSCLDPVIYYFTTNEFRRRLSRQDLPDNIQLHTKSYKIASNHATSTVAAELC

GPR174 [2] = test: as above
mouse splenocytes = test: IL-2 in stimulated splenocyte cultures from WT or GPR174 KO mice; conditions: 48 hours; 10 μM; vs vehicle
Experimental: GPR174 knockout (KO) mice (referred to also as “FKSG79”) were generated as described in Gragerov A. et al., PNAS vol 104(36): 14406-14411, 2007. Splenocyte cultures were generated from four GPR174 KO mice and four wild-type (WT) mice. Single-cell suspension of individual mouse spleens were pelleted by centrifugation, resuspended in RBC lysis buffer to remove erythrocytes, spun down again and resuspended in T cell medium (RPMI-1640, 10% FBS, 6 mM L-Glutamine, 12.5 mM HEPES, 50 μM 2-mercaptoethanol, Pen/Strep). Thus, prepared splenocytes were plated into 96-well plates at a density of 3×10^6 cells/mL, 250 μL/well and stimulated with 100 ng/mL of anti-CD3 antibodies and 100 ng/mL of anti-CD28. Cells were treated with either vehicle (0.1% DMSO) or GPR174 inhibitory Compound 10 (10 μM). 48 hours later, cell supernatants were analyzed for cytokine levels using LEGENDplex mouse Th1 cytokine detection kit (BioLegend). Four GPR174 KO and four WT spleens were analyzed, each in triplicate.

human T cells = test: PD-L1, TIGIT and AREG expression on human T cells in PBMC; conditions: 1.25 or 5 μM; one day post-stimulation
Experimental: PBMC cells from a single donor mixed with additional irradiated antigen-presenting cells (APC) and anti-CD3 antibodies (UCHT1) were incubated in the presence of various concentrations of GPR174 inhibitory compound 10 (1.25 to 5 μM) or equivalent concentrations of vehicle (DMSO). The cells were analyzed by flow cytometry for expression of CD4, CD8, PD-L1, TIGIT and AREG.

[3] = tested on: co-cultured mouse C57BL/6+DBA1 splenocytes; test: Cytokines in C57BL/6 + DBA1 splenocyte co-culture; conditions: 30 μM; day 6 after mixing
Experimental: In order to stimulate T cells in mice, splenocytes obtained from two different mouse strains, C57BL/6 and DBA1, were mixed in culture.
The effect of compound 10 on production of cytokines (IFN-γ, IL-5, TNF-α, IL-2, IL-6, IL-4, IL-10, IL-9, IL17A, IL17F, IL-21, IL-22 and IL-13) in mouse splenocyte co-cultures was determined as follows. Splenocytes obtained from two different mouse strains, C57BL/6 and DBA1, were mixed in culture in the presence or absence of 30 μM compound 10. Cytokine production of IFN-γ, IL-5, TNF-α, IL-2, IL-6, IL-4, IL-10, IL-9, IL-17A, IL-17F, IL-21, IL-22 and IL-13 was measured in the co-culture supernatant at day 4 and day 6 after mixing. Cytokine levels were determined by LEGENDplex™ bead-based immunoassays from BioLegend (San Diego, Calif.) according to the manufacturer's instructions.

human PBMCs = test: Intracellular cytokine staining in cell populations of human PBMC; conditions: 2 days after stimulation
Experimental: In a first experiment, human PBMCs from two different donors were incubated overnight in the presence or absence of compound 10 (10 μM). […] The cells were fixed four hours later and stained with antibodies for cell type markers (FITC-anti-CD3 and PerCP-C95.5-anti-CD4) and IL-2 (PE-anti-IL-2). The cells were analyzed by flow cytometry. The fraction of cells with intracellular IL-2 (PE-labeled) was then determined in the CD4^+ and CD8^+ T cell populations, as well as in non-T cells.
In a second experiment, human PBMCs from two different donors were stimulated with anti-CD3 and anti-CD28 antibodies and incubated in the absence or presence of increasing concentrations of compound 10 (0, 0.1, 0.3, 1.0, or 3.0 μM). The vesicular transport was blocked two days later with GolgiStop™. The cells were fixed four hours later and stained with antibodies for cell type markers (FITC-anti-CD3, PerCP-Cy5.5-anti-CD4, PE-anti-CD56 and Pacific Blue-anti-CD16) and either of the cytokines IL-2, IL-10 and IFN-γ (anti-cytokine antibodies were all APC-labeled). The cells were analyzed by flow cytometry. The fraction of cells with intracellular IL-2, IFN-γ, IL-10 and […] was then determined in different cellular populations.

WT GPR174 = biological target: T2, WT GPR174 (Homo sapiens, UniProt Q9BXC1); test: Inhibition of PS-induced GPR174 Gs signaling (GloSensor), HEK293 stably transfected with WT GPR174
T2 construct: expressed in transfected cells; host or cells: HEK293
T2 sequence (Q9BXC1 whole entry): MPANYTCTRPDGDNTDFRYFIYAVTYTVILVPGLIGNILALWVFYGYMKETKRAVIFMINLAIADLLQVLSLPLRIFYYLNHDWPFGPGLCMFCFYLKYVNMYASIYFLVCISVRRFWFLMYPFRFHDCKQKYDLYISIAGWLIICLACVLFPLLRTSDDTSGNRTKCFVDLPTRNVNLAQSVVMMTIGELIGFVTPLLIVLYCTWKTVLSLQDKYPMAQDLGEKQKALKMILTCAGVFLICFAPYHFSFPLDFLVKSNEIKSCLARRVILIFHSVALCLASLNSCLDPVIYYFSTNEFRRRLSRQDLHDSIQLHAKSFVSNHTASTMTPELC
Experimental: The signaling experiment was conducted as described for FIG. 45, but instead of transient transfection a pool of HEK293 cells stably transfected with either WT GPR174 (for compound 10, as shown in FIG. 47A) or GPR174-v38 for the rest of the tested compounds, as shown in FIGS. 47B-47F)) and GloSensor cAMP biosensor was used. A dilution series of each of the GPR174 inhibitory compounds 10 (Group I), 6 (Group I), 11 (Group I), 20 (Group II), 23 (Group IV), and 30 (Group IV) were prepared in DMSO. After the plates were pre-read in a luminometer, 1 μL of the compound dilution was added per well (with control wells receiving 1 μL of DMSO) followed by addition of PS liposomes to the final concentration of 1 μM. Plates were read in a luminometer after 15 minutes of incubation. The ratio of luminescence after PS addition to the pre-read luminescence value was used as a measure of receptor-mediated signaling.

`CC1CCN(c2cc(N3CCN(S(=O)(=O)c4ccccc4)CC3)c([N+](=O)[O-])cc2F)CC1` [compound 10] was tested. Which “reversal of PS liposome-mediated suppression of IL-2, fold change” value (GPR174 [1]) did it give?
Its value is 3.5 fold.

What about the “effect on IL-2 in presence of PS liposomes, fold change” value (GPR174 [2]; GPR174-KO mouse T cells, FIG. 67) of the same molecule?
Its value is 0.9 fold.

What about the “effect on T cell response in the absence of PS or GPR174” value (GPR174 [2]; purified human and mouse T cells) of the same molecule?
Its value is “negligible effect”.

And the “IL-2 in culture supernatants, GPR174 KO splenocytes” value (mouse splenocytes)?
The value was “no significant difference”.

What about the “IL-2 in culture supernatants, WT splenocytes” value (mouse splenocytes) of the same molecule?
Its value is “increased”.

What about the “AREG expression in CD4+ T cells” value (human T cells) of the same molecule?
Its value is “reduced”.

What about the “PD-L1 expression in CD4+ T cells” value (human T cells) of the same molecule?
The value was “reduced”.

What about the “TIGIT expression in CD8+ T cells” value (human T cells) of the same molecule?
Its value is “reduced”.

What about the “quantities of cytokines produced during splenocyte allogeneic stimulation” value [3] of the same molecule?
Its value is “strong alteration”.

And the “intracellular IFN-γ production by cell type” value (human PBMCs; 0.1-3.0 μM)?
Its value is “enhanced in CD4 and CD8 positive T cells, as well as in NK cells”.

What about the “intracellular IL-2 production by cell type” value (human PBMCs; 0.1-3.0 μM) of the same molecule?
The value was “induced specifically in T cells, both CD4 and CD8 positive”.

What about the “intracellular IL-10 production by cell type” value (human PBMCs; 0.1-3.0 μM) of the same molecule?
The value was “induced specifically in T cells, both CD4 and CD8 positive”.

What about the “intracellular TNF-α production by cell type” value (human PBMCs; 0.1-10 μM) of the same molecule?
Its value is “enhanced in CD4 and CD8 positive T cells, as well as in NK cells”.

And the “PS-mediated GPR174 Gs signaling (FIG. 47A)” value (WT GPR174; PS liposomes 1 μM)?
The value was “inhibited”.

And the IC50 (WT GPR174; PS liposomes 1 μM, WT GPR174, read-out: apparent IC50, inhibition of PS-induced GPR174 Gs signaling)?
Its IC50 is 20 to 40 nM.

And the “inhibition of the PS signaling through the GPR174 receptor” value (WT GPR174; at concentrations of 1-2 μM)?
Its value is “almost complete inhibition”.
